Source: publication PMC4156518 (Cell metabolism, 2014)

What was measured:
[1] = biological target: T1, UCP2 (murine, residues 14-309) (Mus musculus, UniProt P70406); assay: NMR titration, chemical shift perturbation; type: binding
T1 sequence (P70406 14-309): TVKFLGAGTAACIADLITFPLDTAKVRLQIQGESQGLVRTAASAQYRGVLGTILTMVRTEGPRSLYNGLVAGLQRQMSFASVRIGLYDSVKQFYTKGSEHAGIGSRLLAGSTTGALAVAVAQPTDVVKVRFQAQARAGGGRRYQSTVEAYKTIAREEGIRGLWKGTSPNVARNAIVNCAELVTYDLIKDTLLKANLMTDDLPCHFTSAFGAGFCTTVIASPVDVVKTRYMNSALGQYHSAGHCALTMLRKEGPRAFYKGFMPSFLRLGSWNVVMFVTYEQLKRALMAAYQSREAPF

[2] = biological target: T1, UCP2 (murine, residues 14-309); assay: proteoliposome ASO− flipping assay; type: biochemical; conditions: read-out: % inhibition at 100 μM

Kd [1] | inhibition at 100 µM [2] | Structure (SMILES)
600 ± 200 µM |  | CCCCCCCCCCCCCCCC(=O)O [C16-FA]
 | ~95% | Nc1nc2c(ncn2[C@@H]2O[C@H](COP(=O)(O)OP(=O)(O)O)[C@@H](O)[C@H]2O)c(=O)[nH]1 [GDP]
